Earlier results, collected in patent US10858659B2, “Biosynthetic gene cluster of carrimycin” (SHENYANG FUYANG PHARMACEUTICAL TECHNOLOGY CO., LTD., priority 2015, dated 2020).

Assays:
[1] = in vivo

Carrimycin
in-vivo retention time: long | absolute bioavailability (in vivo): high | elimination half-life (in vivo): long | tissue concentration compared with blood plasma concentration (in vivo): higher than blood plasma concentration | tissue distribution (in vivo): wide | tissue penetrability (in vivo): high | oral administration absorption speed (in vivo, po): high | adverse reaction rate [1]: low | injury to livers [1]: little | safety [1]: good
